The values that follow come from BindingDB's records for doi:10.1016/j.ejmech.2018.10.048 (Touro University-California, 2019).

The test can be described thus: Inhibition of HIV1 gp41-induced cell-cell fusion between viral protein expressing human HL2/3 cells and TZM-bl target cells preincubated overnight with TZM-bl cells followed by co-incubation with HL2/3 cells for 6 hrs by luciferase reporter gene assay. A general note: In a reporter assay the amount or activity of a reporter protein is the signal.
As a reminder, the IC50 is the concentration at which inhibition is half-maximal. For the compound `Cn1ccc2cc(F)c(-c3ccc4ccn(Cc5cc(F)cc(C(=O)O)c5)c4c3)cc21`, the IC50 was 2 µM.
With `Cc1ccc(S(=O)(=O)n2ccc3ccc(-c4ccc5ccn(Cc6cccc(C(=O)O)c6)c5c4)cc32)cc1` the figure was 1.3 µM; with `CN(C(=O)OC(C)(C)C)c1cccc(-c2ccc3ccn(Cc4cccc(C(=O)O)c4)c3c2)c1`, 5.9 µM.
With `Cn1ncc2ccc(-c3ccc4cnn(Cc5ccc(F)c(C(=O)O)c5)c4c3)cc21` the figure was greater than 25 µM; with `CC(C)(C)OC(=O)N1CCC(Cn2ccc3ccc(-c4ccc5ccn(Cc6cccc(C(=O)O)c6)c5c4)cc32)CC1`, 1.2 µM.
Consider `Cc1cn(C(=O)OC(C)(C)C)c2cc(-c3ccc4ccn(Cc5cccc(C(=O)O)c5)c4c3)ccc12`, for which the IC50 turned out to be 2.6 µM.
Take `COc1cccc(Cn2ccc3ccc(-c4ccc5c(C)cn(Cc6cccc(C(=O)O)c6)c5c4)cc32)c1`: the IC50 was determined as 4 µM.
Then `Cn1ccc2ccc(-c3ccc4c(c3)N(Cc3cccc(C(=O)O)c3)CC4)cc21`, with greater than 10 µM.
With `COC(=O)c1cc(Cn2ccc3ccc(-c4ccc5ccn(Cc6cccc(C(=O)O)c6)c5c4)cc32)cc(C(=O)OC)c1` the figure was 0.2 µM; with `COc1cccc(CNc2cccc(-c3ccc4ccn(Cc5cccc(C(=O)O)c5)c4c3)c2)c1`, greater than 10 µM.
Then `CC(=O)Nc1cccc(Cn2ccc3ccc(-c4ccc5ccn(Cc6cccc(C(=O)O)c6)c5c4)cc32)c1`, with 1 µM; and `Nc1ccc(Cn2ccc3ccc(-c4ccc5ccn(Cc6cccc(C(=O)O)c6)c5c4)cc32)cc1`, with 3 µM.
For `COc1cccc(CN2CCc3ccc(-c4ccc5ccn(Cc6cccc(C(=O)O)c6)c5c4)cc32)c1`, the IC50 stood at 1 µM.
With `Cn1ccc2ccc(-c3ccc4cnn(Cc5cc(F)cc(C(=O)O)c5)c4c3)cc21` the figure was 4.6 µM; with `COC(=O)c1cccc(Cn2ccc3ccc(-c4ccc5cnn(Cc6cccc(C(=O)O)c6)c5c4)cc32)c1`, 2.8 µM; with `Cn1ccc2ccc(-c3ccc4ccn(Cc5cc(F)cc(C(=O)O)c5)c4c3)cc21`, 3.6 µM.
With `O=C(O)c1cccc(Cn2ccc3ccc(-c4ccc5ccn(Cc6cccc([N+](=O)[O-])c6)c5c4)cc32)c1` the figure was 2 µM.
Then `Cn1cc2ccc(-c3ccc4ccn(Cc5cc(F)cc(C(=O)O)c5)c4c3)cc2n1`, with 28 µM; and `COC(=O)c1cc(F)cc(Cn2ccc3ccc(-c4ccc5ccn(Cc6cccc(C(=O)O)c6)c5c4)cc32)c1`, with 0.8 µM; and `COC(=O)c1ccc(Cn2ccc3ccc(-c4ccc5ccn(Cc6cccc(C(=O)O)c6)c5c4)cc32)c(OC)c1`, with 2 µM.
Turning to `COC(=O)c1cccc(Cn2ncc3ccc(-c4ccc5ccn(Cc6cccc(C(=O)O)c6)c5c4)cc32)c1`, the IC50 worked out at 0.3 µM.
With `Cn1ncc2ccc(-c3ccc4ccn(Cc5cc(F)cc(C(=O)O)c5)c4c3)cc21` the figure was 7 µM.
With `CC(C)(C)OC(=O)n1ccc2ccc(-c3ccc4ccn(Cc5cccc(C(=O)O)c5)c4c3)cc21`, the IC50 came to 0.8 µM.
With `COc1cc(Cn2ccc3ccc(-c4ccc5ccn(Cc6cccc(C(=O)O)c6)c5c4)cc32)cc(C(=O)O)c1` the figure was 8 µM; with `COc1cccc(Cn2ccc3cc(F)c(-c4ccc5ccn(Cc6cccc(C(=O)O)c6)c5c4)cc32)c1`, 3.5 µM; with `CC(C)(C)OC(=O)Nc1cccc(Cn2ccc3ccc(-c4ccc5ccn(Cc6cccc(C(=O)O)c6)c5c4)cc32)c1`, 2 µM.
